Experimental data reported in PubChem BioAssay (NCI).
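In this assay, cells in 96-well plates receive the compound at five concentrations for 48 hours. Endpoints are linearly interpolated between the surrounding concentrations. TGI marks complete inhibition of growth.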 Where a SMILES comes first, the peptide text is derived from it. [ ]: non-standard residue; d: D form. pGlu = O=C1CC[CH](C(=O)O)N1; Thz = O=C(O)[CH]1CSCN1

How the values were obtained:
Assay in all cases: inhibition of tumour cell growth, NCI panel, 48 h
[1] = test system: BT-549 breast
[2] = test system: MDA-MB-231 breast
[3] = test system: MDA-MB-435
[4] = test system: MOLT-4 leukemia
[5] = test system: OVCAR-8 ovarian
[6] = test system: PC-3 prostate
[7] = test system: RPMI-8226 leukemia
[8] = test system: SK-MEL-28 melanoma
[9] = test system: SK-MEL-5 melanoma
[10] = test system: SN12C renal
[11] = test system: UACC-257 melanoma

SMILES | TGI [1] [µM] | TGI [2] [µM] | TGI [3] [µM] | TGI [4] [µM] | TGI [5] [µM] | TGI [6] [µM] | TGI [7] [µM] | TGI [8] [µM] | TGI [9] [µM] | TGI [10] [µM] | TGI [11] [µM]
Nc1nc(Cl)cc(NCC2(CCO)CCC2)n1 | > 100 | > 100 | > 100 | > 100 | > 100 | > 100 | > 100 | > 100 | > 100 | > 100 | > 100
COC1OC2COC1(OCc1ccccc1)C1OC(C)(C)OC21 (stereo not given) | > 100 | > 100 | > 100 | > 100 | > 100 | > 100 | > 100 | > 100 | > 100 | > 100 | > 100
O=C(OC1=CCN(Br)C1=O)C1=C(O)C(=O)N(Br)C1 | 46 | 86.3 | > 100 | 87.7 | > 100 | > 100 | > 100 | 41.4 | 33.5 | 31 | 87.6
C=C1C(C(=O)OC)[C@H]1C(=O)OC (stereo not given in full) | > 100 | > 100 | > 100 | > 100 | > 100 | > 100 | > 100 | > 100 | > 100 | > 100 | > 100
CC(C)C1CSC2N1C(=O)C2(OCc1ccccc1)C1CC1 (stereo not given) | > 100 | > 100 | > 100 | > 100 | > 100 | > 100 | > 100 | > 100 | > 100 | > 100 | > 100
COc1ccc(/[N+]([O-])=C/c2ccc(OC(=S)S)c(OC)c2)cc1 | 79.7 | > 100 | 61.1 | > 100 | > 100 | > 100 | > 100 | > 100 | 93.2 | > 100 | > 100
COC(=O)[C@H](Cc1ccccc1)NC(=O)c1ccc(CNC(=O)/C=C/c2ccc(OCc3ccccc3)cc2)cc1 | 57.9 | 47 | 12.8 | 28 | 36.4 | 43.8 | > 100 | 25.2 | 33.4 | 32.6 | 7.33
CCOC(=O)c1c(N)sc2c1CC(C)CC2 (stereo not given) | > 100 | > 100 | > 100 | > 100 | > 100 | > 100 | 75 | > 100 | 37.7 | > 100 | 97.3
COc1ccc(/C=C2\N=C(N3CCCC(CO)C3)NC2=O)cc1 (stereo not given) | > 100 | > 100 | > 100 | > 100 | > 100 | > 100 | > 100 | > 100 | > 100 | > 100 | > 100
ClCc1nc2ccccc2[nH]1 | > 100 | > 100 | > 100 | > 100 | > 100 | > 100 | > 100 | > 100 | > 100 | > 100 | > 100
O=S(=O)(O)c1ccc(N=Nc2ccccc2)cc1 | > 100 | > 100 | > 100 | > 100 | > 100 | > 100 | > 100 | > 100 | > 100 | > 100 | > 100
CC1C(C)(C)C23CC12C1(OCCO1)C3Br (stereo not given) | > 100 | > 100 | > 100 | > 100 | > 100 | > 100 | > 100 | > 100 | > 100 | > 100 | > 100
O=c1onc2n1-c1ccc(Cl)cc1C(=S)N1CSCC21 (stereo not given) | 67.4 | 41.8 | 23.8 | > 100 | 39.8 | > 100 | > 100 | > 100 | > 100 | 88.2 | > 100
NS(=O)(=O)c1ccc(NC(=O)N/N=C/c2ccccc2[N+](=O)[O-])cc1 | > 100 | > 100 | 42.7 | > 100 | > 100 | > 100 | > 100 | > 100 | > 100 | > 100 | > 100
COC(=O)C(CNC(=O)/C=C/c1ccc(OC)c(OC)c1)NC(=O)/C=C/c1ccc(OC)c(OC)c1 (stereo not given) | > 100 | > 100 | > 100 | > 100 | > 100 | > 100 | > 100 | > 100 | > 100 | > 100 | > 100
CN1CCC2(CC1)SSC1(CCN(C)CC1)S2 | > 100 | > 100 | > 100 | > 100 | > 100 | > 100 | > 100 | > 100 | > 100 | > 100 | > 100
C#C[C@]1(O)CC[C@H]2[C@@H]3CCC4=C/C(=N\OCCN5CCCCC5)CC[C@]4(C)[C@H]3CC[C@@]21C | 17.6 | 29 | 8.91 | 11.6 | 21.2 | 17.3 | 15.3 | 27.4 | 6.19 | 19.7 | 12.8
S=C(NCc1ccccc1)Nc1sc(=NCc2ccccc2)nc2sc3c(c12)CCN(N1CCc2c(sc4nc(=NCc5ccccc5)sc(NC(=S)NCc5ccccc5)c24)C1)C3 | > 85.6 | > 44 | > 100 | > 96.1 | > 100 | > 49.8 | > 100 | > 79 | > 100 | > 52.8 | > 78.4

SMILES | TGI [1] [µM] | TGI [2] [µM] | TGI [3] [µM] | TGI [4] [µM] | TGI [5] [µM] | TGI [6] [µM] | TGI [7] [µM] | TGI [8] [µM] | TGI [9] [µM] | TGI [10] [µM] | TGI [11] [µM]
CCOC(=O)c1c(O)cn2c1[nH]c1cccc3cccc2c31 | > 100 | > 100 | > 100 | > 100 | > 100 | > 100 | > 100 | > 100 | > 100 | > 100 | > 100
CCOC(=O)CNC(=O)C(CCC(=O)N(C)O)NC(=O)CCC(N)C(=O)O (stereo not given) | > 100 | > 100 | > 100 | > 100 | > 100 | > 100 | > 100 | > 100 | > 100 | > 100 | > 100
Nc1ncnc2c1ncn2[C@H]1C=C[C@@H](NO)C1 | > 100 | > 100 | > 100 | > 100 | > 100 | > 100 | > 100 | > 100 | > 100 | > 100 | > 100
O=c1[nH]c(Nc2ccc(Br)c(C(F)(F)F)c2)nc2nc[nH]c12 | > 100 | > 100 | > 100 | 88.5 | > 100 | > 100 | > 100 | > 100 | 71.8 | > 100 | > 100
Cc1ncn(-c2ccccc2O)c1C | > 100 | > 100 | > 100 | > 100 | > 100 | > 100 | > 100 | > 100 | > 100 | > 100 | > 100
Cc1nc(OCc2ccccc2)c2ncn(CCO)c2n1 | > 100 | > 100 | > 100 | > 100 |  | > 100 | > 100 | > 100 | > 100 | > 100 | > 100
NC1=Nc2ccccc2Sc2nncn21 | > 100 | > 100 | > 100 | > 100 | > 100 | > 100 | > 100 | > 100 | > 100 | > 100 | > 100
COc1cc(C2C=C(c3ccccc3)Oc3cc4c(cc32)OCO4)cc(OC)c1OC (stereo not given) | > 100 | > 32.2 | > 100 | > 100 | > 32.6 | > 100 | > 100 | > 100 | > 47.8 | > 96.3 | > 100
COc1ccc(C2SCC(=O)N2c2ccc(-n3c(-c4ccccc4)nc4ccccc4c3=O)cc2)cc1 (stereo not given) | > 100 | > 100 | > 100 | > 100 | > 100 | > 100 | > 100 | > 100 | > 100 | > 100 | > 100
O=C1CCC(C(=O)N2CSCC2C(=O)O)N1 (stereo not given) ([pGlu]-[Thz]-OH; configuration not given here) | > 100 | > 100 | > 100 | > 100 | > 100 | > 100 | > 100 | > 100 | > 100 | > 100 | > 100
O=C(Nc1ccccc1)N(CCN(Cc1ccccc1)C(=O)Nc1ccccc1)CCN(Nc1ccccc1)C(=O)Nc1ccccc1 | > 100 | > 100 | > 100 | > 100 | > 100 | > 100 | > 100 | > 100 | > 100 | > 100 | > 100
Cc1cn(C2CC(n3cc(Cn4ccc(=O)[nH]c4=O)nn3)C(CO)O2)c(=O)[nH]c1=O (stereo not given) | > 100 | > 100 | > 100 | > 100 | > 100 | > 100 | > 100 | > 100 | > 100 | > 100 | > 100
C(=N\c1nc2cc3sc(/N=C/c4ccccc4)nc3cc2s1)/c1ccccc1 | > 100 | > 100 | > 100 | > 80.9 | > 100 | > 100 | > 100 | > 100 | > 100 | > 100 | > 100
CO/C=C(/C(=O)OC)[C@@H]1C[C@@H]1c1ccc2ccccc2c1 | 50.5 | > 100 | 35.1 | 65.4 | > 100 | > 100 | 41.9 | 81.4 | 30.3 | > 100 | 71.9
Cc1nc(-c2ccccc2)cn2c1nc1ccccc12 | 38.9 | > 100 | 36.9 | > 100 | 37.3 | 69.5 | > 100 | 72.8 | 28.6 | > 84.7 | > 82.3
Nn1c(CCCCCCCCc2nnc(-c3c(O)ccc4ccccc34)n2N)nnc1-c1c(O)ccc2ccccc12 | > 100 | > 100 | > 100 | > 100 | > 100 | > 100 | > 100 | > 100 | > 100 | > 100 | > 100
O=C(O)c1nc2cc(Cl)ccc2[nH]c1=O | > 100 | > 100 | > 100 | > 100 | > 100 | > 100 | > 100 | > 100 | > 100 | > 100 | > 100
Cn1c(-c2ccco2)ccc1-c1ccc(C=O)o1 | > 100 | > 100 | > 100 | 74.6 | > 100 | > 100 | > 100 | > 100 | > 100 | > 100 | > 100
